For 27 compounds, IC50 results are on record in US11111237B2, “Bicyclic compound and use thereof” (SK BIOPHARMACEUTICALS CO., LTD., priority 2019, dated 2021).

The structures appear in SMILES notation. Where a name gives a salt, the structure may show the parent alone.

For the assay, the target named is PRMT5-MEP50 enzyme complex (Homo sapiens (Human), UniProt O14744). Kind of assay: PRMT5 enzyme activity in vitro assay (methylation of histone H4R3, ELISA absorbance at 450 nm). Particulars: SAM, histone H4 peptide, room temperature 2 hours, 8 points from 10 μM to 0.128 nM. It counts as biochemical. Summed up: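 IC50 was derived from ELISA absorbance at 450 nm, using primary and HRP antibodies against H4R3 methylation on immobilised histone H4 peptide (residues 1-20). Compounds (10 μM to 0.128 nM, 8 points, 1:5) were incubated 2 h at room temperature with the PRMT5-MEP50 complex and SAM, diluted to 5 μg/mL and 2 μM respectively.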
Sequence of PRMT5-MEP50 enzyme complex (O14744 2-637): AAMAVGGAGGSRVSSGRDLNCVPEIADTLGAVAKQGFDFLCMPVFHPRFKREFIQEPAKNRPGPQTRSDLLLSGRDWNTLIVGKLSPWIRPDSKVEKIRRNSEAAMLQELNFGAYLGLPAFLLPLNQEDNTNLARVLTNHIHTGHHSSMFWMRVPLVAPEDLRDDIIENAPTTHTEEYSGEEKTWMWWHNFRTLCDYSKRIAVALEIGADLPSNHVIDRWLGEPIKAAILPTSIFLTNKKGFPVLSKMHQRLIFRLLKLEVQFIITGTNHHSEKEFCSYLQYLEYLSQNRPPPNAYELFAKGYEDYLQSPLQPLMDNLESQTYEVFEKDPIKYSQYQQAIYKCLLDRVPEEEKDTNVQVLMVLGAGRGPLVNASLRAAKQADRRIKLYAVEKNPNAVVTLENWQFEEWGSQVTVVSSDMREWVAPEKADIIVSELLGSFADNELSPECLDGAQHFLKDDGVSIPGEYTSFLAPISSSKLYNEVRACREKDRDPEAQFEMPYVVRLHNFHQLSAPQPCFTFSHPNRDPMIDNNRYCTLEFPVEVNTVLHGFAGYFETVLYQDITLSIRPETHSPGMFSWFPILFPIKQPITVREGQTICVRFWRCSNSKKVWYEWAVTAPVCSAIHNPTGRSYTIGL
Sequence of PRMT5-MEP50 enzyme complex (Q9BQA1 2-342 partner): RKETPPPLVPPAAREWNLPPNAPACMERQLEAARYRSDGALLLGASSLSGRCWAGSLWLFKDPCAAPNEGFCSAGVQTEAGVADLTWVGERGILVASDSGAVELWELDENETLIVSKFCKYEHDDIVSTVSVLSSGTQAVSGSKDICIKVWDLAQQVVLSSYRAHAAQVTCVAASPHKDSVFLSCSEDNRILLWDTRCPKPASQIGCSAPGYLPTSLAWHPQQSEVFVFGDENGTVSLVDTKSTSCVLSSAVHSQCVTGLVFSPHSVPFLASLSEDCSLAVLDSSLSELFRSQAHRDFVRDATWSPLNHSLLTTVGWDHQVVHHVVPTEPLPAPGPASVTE
`CC1(C)CN(C[C@H](O)CN2CCc3ccccc3C2)C(=O)c2ccc(CN3CCOCC3)cc2O1` [Example 111, 4-[(2R)-3-(3,4-dihydro-1H-isoquinolin-2-yl)-2-hydroxy-propyl]-2,2-dimethyl-8-(morpholinomethyl)-3H-1,4-benzoxazepin-5-one] registered an IC50 of 0.1 to 1 µM.

`CC1(C)CN(C[C@H](O)CN2CCc3ccccc3C2)C(=O)c2ccc(OCc3ccncc3)cc2O1` [Example 113, 4-[(2R)-3-(3,4-dihydro-1H-isoquinolin-2-yl)-2-hydroxy-propyl]-2,2-dimethyl-8-(4-pyridylmethoxy)-3H-1,4-benzoxazepin-5-one]: the IC50 lay within 0.1 to 1 µM.

For the compound `CC(=O)N1CC(Oc2ccc3c(c2)OC(C)(C)CN(C[C@H](O)CN2CCc4ccccc4C2)C3=O)C1` [Example 114, 8-(1-acetylazetidin-3-yl)oxy-4-[(2R)-3-(3,4-dihydro-1H-isoquinolin-2-yl)-2-hydroxy-propyl]-2,2-dimethyl-3H-1,4-benzoxazepin-5-one], the IC50 lay within 0.001 to 0.1 µM.

Compound `CN1CCN(C[C@H](O)CN2CCc3ccccc3C2)C(=O)c2ccc(CN3CCOCC3)cc21` [Example 115, 4-[(2R)-3-(3,4-dihydro-1H-isoquinolin-2-yl)-2-hydroxy-propyl]-1-methyl-8-(morpholinomethyl)-2,3-dihydro-1,4-benzodiazepin-5-one] gave an IC50 of 0.001 to 0.1 µM.

With `CN1CCN(C[C@H](O)CN2CCc3ccccc3C2)C(=O)c2ccc(CCC(F)(F)F)cc21` [Example 116, 4-[(2R)-3-(3,4-dihydro-1H-isoquinolin-2-yl)-2-hydroxy-propyl]-1-methyl-8-(3,3,3-trifluoropropyl)-2,3-dihydro-1,4-benzodiazepin-5-one], the IC50 is 0.1 to 1 µM.

The compound `CN1CCN(C[C@H](O)CN2CCc3ccccc3C2)C(=O)c2ccc(CC3CCCCC3)cc21` [Example 117, 8-(cyclohexylmethyl)-4-[(2R)-3-(3,4-dihydro-1H-isoquinolin-2-yl)-2-hydroxy-propyl]-1-methyl-2,3-dihydro-1,4-benzodiazepin-5-one] returned an IC50 of 0.1 to 1 µM.

Turning to `CN1CCN(C[C@H](O)CN2CCc3ccccc3C2)C(=O)c2ccc(C3=CCCCC3)cc21` [Example 118, 8-(cyclohexen-1-yl)-4-[(2R)-3-(3,4-dihydro-1H-isoquinolin-2-yl)-2-hydroxy-propyl]-1-methyl-2,3-dihydro-1,4-benzodiazepin-5-one], the IC50 is 0.001 to 0.1 µM.

`CN1CCN(C[C@H](O)CN2CCc3ccccc3C2)C(=O)c2ccc(C3=CCC(C(F)(F)F)CC3)cc21` (stereo partly drawn) [Example 119, 4-[(2R)-3-(3,4-dihydro-1H-isoquinolin-2-yl)-2-hydroxy-propyl]-1-methyl-8-[4-(trifluoromethyl)cyclohexen-1-yl]-2,3-dihydro-1,4-benzodiazepin-5-one] had an IC50 of 0.1 to 1 µM.

`CN1CCN(C[C@H](O)CN2CCc3ccccc3C2)C(=O)c2ccc(C3=CCN(C(=O)OC(C)(C)C)CC3)cc21` [Example 120, tert-butyl 4-[4-[(2R)-3-(3,4-dihydro-1H-isoquinolin-2-yl)-2-hydroxy-propyl]-1-methyl-5-oxo-2,3-dihydro-1,4-benzodiazepin-8-yl]-3,6-dihydro-2H-pyridine-1-carboxylate] displayed an IC50 of 0.001 to 0.1 µM.

`CC(=O)N1CCC(Oc2ccc3c(c2)N(C)CCN(C[C@H](O)CN2CCc4ccccc4C2)C3=O)CC1` [Example 121, 8-[(1-acetyl-4-piperidyl)oxy]-4-[(2R)-3-(3,4-dihydro-1H-isoquinolin-2-yl)-2-hydroxy-propyl]-1-methyl-2,3-dihydro-1,4-benzodiazepin-5-one]: the IC50 was in the range of 0.1 to 1 µM.

In turn, `CC(=O)N1CC(Oc2ccc3c(c2)N(C)CCN(C[C@H](O)CN2CCc4ccccc4C2)C3=O)C1` [Example 122, 8-(1-acetylazetidin-3-yl)oxy-4-[(2R)-3-(3,4-dihydro-1H-isoquinolin-2-yl)-2-hydroxy-propyl]-1-methyl-2,3-dihydro-1,4-benzodiazepin-5-one] displayed an IC50 of 0.1 to 1 µM.

For the compound `CC(=O)N1CC[C@@H](Oc2ccc3c(c2)N(C)CCN(C[C@H](O)CN2CCc4ccccc4C2)C3=O)C1` [Example 123, 8-[(3R)-1-acetylpyrrolidin-3-yl]oxy-4-[(2R)-3-(3,4-dihydro-1H-isoquinolin-2-yl)-2-hydroxy-propyl]-1-methyl-2,3-dihydro-1,4-benzodiazepin-5-one], the IC50 lay in the range of 0.1 to 1 µM.

In turn, `CC(=O)N1CC[C@H](Oc2ccc3c(c2)N(C)CCN(C[C@H](O)CN2CCc4ccccc4C2)C3=O)C1` [Example 124, 8-[(3S)-1-acetylpyrrolidin-3-yl]oxy-4-[(2R)-3-(3,4-dihydro-1H-isoquinolin-2-yl)-2-hydroxy-propyl]-1-methyl-2,3-dihydro-1,4-benzodiazepin-5-one] gave an IC50 of 0.1 to 1 µM.

The compound `CN1CCC(Oc2ccc3c(c2)N(C)CCN(C[C@H](O)CN2CCc4ccccc4C2)C3=O)CC1` [Example 125, 4-[(2R)-3-(3,4-dihydro-1H-isoquinolin-2-yl)-2-hydroxy-propyl]-1-methyl-8-[(1-methyl-4-piperidyl)oxy]-2,3-dihydro-1,4-benzodiazepin-5-one] returned an IC50 of 0.1 to 1 µM.

On to `CCN1CCC(Oc2ccc3c(c2)N(C)CCN(C[C@H](O)CN2CCc4ccccc4C2)C3=O)CC1` [Example 126, 4-[(2R)-3-(3,4-dihydro-1H-isoquinolin-2-yl)-2-hydroxy-propyl]-8-[(1-ethyl-4-piperidyl)oxy]-1-methyl-2,3-dihydro-1,4-benzodiazepin-5-one], for which the IC50 is 0.1 to 1 µM.

In the case of `CN1CCN(C[C@H](O)CN2CCc3ccccc3C2)C(=O)c2ccc(OC3CCN(C4CCC4)CC3)cc21` [Example 127, 8-[(1-cyclobutyl-4-piperidyl)oxy]-4-[(2R)-3-(3,4-dihydro-1H-isoquinolin-2-yl)-2-hydroxy-propyl]-1-methyl-2,3-dihydro-1,4-benzodiazepin-5-one], the IC50 was 0.001 to 0.1 µM.

For the compound `CN1CCN(C[C@H](O)CN2CCc3ccccc3C2)C(=O)c2ccc(OC3CCN(C4CCOC4)CC3)cc21` (stereo partly drawn) [Example 128, 4-[(2R)-3-(3,4-dihydro-1H-isoquinolin-2-yl)-2-hydroxy-propyl]-1-methyl-8-[(1-tetrahydrofuran-3-yl-4-piperidyl)oxy]-2,3-dihydro-1,4-benzodiazepin-5-one], the IC50 was in the range of 0.1 to 1 µM.

For the compound `CN1CCN(C[C@H](O)CN2CCc3ccccc3C2)C(=O)c2ccc(OC3CCN(C4COC4)CC3)cc21` [Example 129, 4-[(2R)-3-(3,4-dihydro-1H-isoquinolin-2-yl)-2-hydroxy-propyl]-1-methyl-8-[[1-(oxetan-3-yl)-4-piperidyl]oxy]-2,3-dihydro-1,4-benzodiazepin-5-one], the IC50 was in the range of 0.1 to 1 µM.

For the compound `CN1CCCC(Oc2ccc3c(c2)N(C)CCN(C[C@H](O)CN2CCc4ccccc4C2)C3=O)C1` (stereo partly drawn) [Example 130, 4-[(2R)-3-(3,4-dihydro-1H-isoquinolin-2-yl)-2-hydroxy-propyl]-1-methyl-8-[(1-methyl-3-piperidyl)oxy]-2,3-dihydro-1,4-benzodiazepin-5-one], the 50% inhibitory concentration (IC50) lay within 0.1 to 1 µM.

`CN1CCC(COc2ccc3c(c2)N(C)CCN(C[C@H](O)CN2CCc4ccccc4C2)C3=O)C1` (stereo partly drawn) [Example 131, 4-[(2R)-3-(3,4-dihydro-1H-isoquinolin-2-yl)-2-hydroxy-propyl]-1-methyl-8-[(1-methylpyrrolidin-3-yl)methoxy]-2,3-dihydro-1,4-benzodiazepin-5-one] showed a half-maximal inhibitory concentration (IC50) of 0.1 to 1 µM.

`CN1CCC(Oc2ccc3c(c2)N(C)CCN(C[C@H](O)CN2CCc4ccccc4C2)C3=O)C1` (stereo partly drawn) [Example 132, 4-[(2R)-3-(3,4-dihydro-1H-isoquinolin-2-yl)-2-hydroxy-propyl]-1-methyl-8-(1-methylpyrrolidin-3-yl)oxy-2,3-dihydro-1,4-benzodiazepin-5-one] yielded an IC50 of 0.1 to 1 µM.

Turning to `CN1CCCC(COc2ccc3c(c2)N(C)CCN(C[C@H](O)CN2CCc4ccccc4C2)C3=O)C1` (stereo partly drawn) [Example 133, 4-[(2R)-3-(3,4-dihydro-1H-isoquinolin-2-yl)-2-hydroxy-propyl]-1-methyl-8-[(1-methyl-3-piperidyl)methoxy]-2,3-dihydro-1,4-benzodiazepin-5-one], the IC50 was 0.001 to 0.1 µM.

Compound `CN1CCN(C[C@H](O)CN2CCc3ccccc3C2)C(=O)c2ccc(OCc3ccncc3F)cc21` [Example 134, 4-[(2R)-3-(3,4-dihydro-1H-isoquinolin-2-yl)-2-hydroxy-propyl]-8-[(3-fluoro-4-pyridyl)methoxy]-1-methyl-2,3-dihydro-1,4-benzodiazepin-5-one] registered an IC50 of 0.001 to 0.1 µM.

`CN1CCN(C[C@H](O)CN2CCc3ccccc3C2)C(=O)c2ccc(OC3CCNCC3F)cc21` (stereo partly drawn) [Example 135, 4-[(2R)-3-(3,4-dihydro-1H-isoquinolin-2-yl)-2-hydroxy-propyl]-8-[(3-fluoro-4-piperidyl)oxy]-1-methyl-2,3-dihydro-1,4-benzodiazepin-5-one; dihydrochloride] had a concentration for half-maximal inhibition (IC50) of 0.1 to 1 µM.

For the compound `CCN1CCC(Oc2ccc3c(c2)N(C)CCN(C[C@H](O)CN2CCc4ccccc4C2)C3=O)C(F)C1` (stereo partly drawn) [Example 136, 4-[(2R)-3-(3,4-dihydro-1H-isoquinolin-2-yl)-2-hydroxy-propyl]-8-[(1-ethyl-3-fluoro-4-piperidyl)oxy]-1-methyl-2,3-dihydro-1,4-benzodiazepin-5-one], the IC50 lay in the range of 0.1 to 1 µM.

On to `CCN1C2CCC1CC(Oc1ccc3c(c1)N(C)CCN(C[C@H](O)CN1CCc4ccccc4C1)C3=O)C2` (stereo partly drawn) [Example 137, 4-[(2R)-3-(3,4-dihydro-1H-isoquinolin-2-yl)-2-hydroxy-propyl]-8-[(8-ethyl-8-azabicyclo[3.2.1]octan-3-yl)oxy]-1-methyl-2,3-dihydro-1,4-benzodiazepin-5-one], for which the IC50 was in the range of 0.001 to 0.1 µM.

Compound `CC1CC(Oc2ccc3c(c2)N(C)CCN(C[C@H](O)CN2CCc4ccccc4C2)C3=O)CCN1` (stereo partly drawn) [Example 138, 4-[(2R)-3-(3,4-dihydro-1H-isoquinolin-2-yl)-2-hydroxy-propyl]-1-methyl-8-[(2-methyl-4-piperidyl)oxy]-2,3-dihydro-1,4-benzodiazepin-5-one; dihydrochloride] had an IC50 of 0.1 to 1 µM.
